Patent US20070021434A1, “NON-NUCLEOSIDE ANTI-HEPACIVIRUS AGENTS AND USES THEREOF” (Migenix Inc., priority 2005, published 2007)
pEC50, pIC50: −log10 of the molar value. Read-outs that look alike come from different tables or passages of the source.

Columns and labels:
HCV RdRp (NS5B) = HCV RdRp (NS5B) (UniProt P26663); assay type: biochemical, hepatitis C virus
[1] = system: Huh-7 cells, sub-genomic genotype 1a HCV replicon H/SG-Neo; test: Inhibition of HCV replication in cell culture, genotype 1a replicon; assay type: cell-based, hepatitis C virus; settings: for pEC50: Huh-7, genotype 1a replicon, intracellular HCV RNA 24 h after 3 daily doses; for Selectivity Index (CC50/EC50): genotype 1a replicon, CC50 by neutral red uptake
Procedure: (§1) Test compounds were solubilized at 30 mM in 100% tissue culture grade DMSO (Sigma, Inc.). Aliquots of test compounds sufficient for one daily treatment were made in individual tubes and all material was stored at −20° C. On each day of treatment, daily aliquots of the test compounds were suspended in culture medium at room temperature and immediately added to the cell cultures. Compounds were added to dividing cultures once daily for three days at concentrations ranging from about 30 μM to about 0.0003 μM. Media was changed with each addition of compound. The assays were started when cell cultures were at about 30-50% confluence, and the cells reached confluence during the last day of treatment. The assays included untreated control cultures (six total), and triplicate cultures treated with α-interferon and ribavirin as positive antiviral and toxicity controls.
(§2) Intracellular HCV RNA levels and cytotoxicity were assessed in triplicate 24 hours after the last compound dose.

[2] = system: Huh-7 cells, genotype 1b HCV replicon; test: Inhibition of HCV replication in cell culture, genotype 1b replicon; assay type: cell-based, hepatitis C virus; settings: for pEC50: Hepatitis C virus, Huh-7, 24 h, read-out: EC50; for pEC50 / EC50: Huh-7, genotype 1b replicon, intracellular HCV RNA 24 h after 3 daily doses; for Selectivity Index (CC50/EC50): genotype 1b replicon, CC50 by neutral red uptake
Procedure: as §1, §2

HCV RdRp = target: T1, HCV RdRp (Hepatitis C virus genotype 1b, UniProt P26663); settings: literature value; read-out: Published IC50; cited from earlier work
T1 construct: The HCV encoded RNA-dependent RNA polymerase (HCV RdRp), also known as non-structural protein 5B (NS 5B)
T1 sequence (P26663 2420-3010): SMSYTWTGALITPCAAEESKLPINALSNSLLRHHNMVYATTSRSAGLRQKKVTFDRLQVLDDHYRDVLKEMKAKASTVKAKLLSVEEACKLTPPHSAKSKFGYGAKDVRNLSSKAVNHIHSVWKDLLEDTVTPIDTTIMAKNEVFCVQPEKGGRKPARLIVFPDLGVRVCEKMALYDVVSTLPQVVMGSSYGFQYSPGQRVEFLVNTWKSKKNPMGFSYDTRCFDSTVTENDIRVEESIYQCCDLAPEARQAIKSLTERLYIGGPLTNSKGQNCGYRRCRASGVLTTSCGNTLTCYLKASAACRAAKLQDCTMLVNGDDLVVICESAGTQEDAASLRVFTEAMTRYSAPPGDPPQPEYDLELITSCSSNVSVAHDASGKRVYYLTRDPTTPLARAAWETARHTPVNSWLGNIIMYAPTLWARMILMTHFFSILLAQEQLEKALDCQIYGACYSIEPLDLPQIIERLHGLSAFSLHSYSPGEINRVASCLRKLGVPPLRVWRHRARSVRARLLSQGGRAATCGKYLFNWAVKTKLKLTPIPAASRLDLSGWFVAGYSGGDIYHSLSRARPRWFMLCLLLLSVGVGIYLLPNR

[3] = target: T2, NS5B (Replizyme, UK), HCV genotype 1b Δ21 RdRp (UniProt P26663); assay type: biochemical, hepatitis C virus
T2 construct: other: Replizyme enzyme
Procedure: (§3) An RNA-dependant RNA polymerase assay was performed in a 96-well round bottom polypropylene plates (Costar) with a 50 μl reaction volume containing 20 mM HEPES pH 7.2-7.5 (Gibco), 1 mM DTT (Sigma), 0.4 mM MnCl2 (Sigma), 70 nM RNA template-primer PolyA (Amersham)-Oligo dT(20) biotin labelled (Roche), 20 μM UTP (Roche), 5U RNasin (Promega), 50 mM NaCl (Ambion), 4 μM DIG-11-UTP (Roche), test compound at desired concentration, 5% DMSO and 50-80 ng NS5B (Replizyme(V, UK) or 200-500 ng of recombinant NS5BA21 HCV RdRp enzyme. After 1 hour incubation at 30° C, the reaction is stopped by the addition of 5 μl 0.5 M EDTA and the solution is transferred to a streptavidin coated 96 well plate (Roche). Standard ELISA detection using Anti DIG-POD antibody (Roche) and BM Blue substrate is applied before measuring Abs at 450 nm. An illustration of the assay can be found in FIG. 1.

[4] = target: recombinant NS5BΔ21 HCV RdRp enzyme (genotype 1b, produced in-house) (UniProt P26663); test: RdRp assay with ELISA, recombinant in-house enzyme; assay type: biochemical, hepatitis C virus; settings: read-out: Experimental IC50, Recombinant
Procedure: as §3

[5] = system: NS5B (Replizyme, UK), HCV genotype 1b Δ21 RdRp; assay type: biochemical, hepatitis C virus
Procedure: as §3

[6] = read-out: Experimental IC50, Replizyme; Replizyme enzyme

Sequence of HCV RdRp (NS5B) (P26663 whole entry, looked up): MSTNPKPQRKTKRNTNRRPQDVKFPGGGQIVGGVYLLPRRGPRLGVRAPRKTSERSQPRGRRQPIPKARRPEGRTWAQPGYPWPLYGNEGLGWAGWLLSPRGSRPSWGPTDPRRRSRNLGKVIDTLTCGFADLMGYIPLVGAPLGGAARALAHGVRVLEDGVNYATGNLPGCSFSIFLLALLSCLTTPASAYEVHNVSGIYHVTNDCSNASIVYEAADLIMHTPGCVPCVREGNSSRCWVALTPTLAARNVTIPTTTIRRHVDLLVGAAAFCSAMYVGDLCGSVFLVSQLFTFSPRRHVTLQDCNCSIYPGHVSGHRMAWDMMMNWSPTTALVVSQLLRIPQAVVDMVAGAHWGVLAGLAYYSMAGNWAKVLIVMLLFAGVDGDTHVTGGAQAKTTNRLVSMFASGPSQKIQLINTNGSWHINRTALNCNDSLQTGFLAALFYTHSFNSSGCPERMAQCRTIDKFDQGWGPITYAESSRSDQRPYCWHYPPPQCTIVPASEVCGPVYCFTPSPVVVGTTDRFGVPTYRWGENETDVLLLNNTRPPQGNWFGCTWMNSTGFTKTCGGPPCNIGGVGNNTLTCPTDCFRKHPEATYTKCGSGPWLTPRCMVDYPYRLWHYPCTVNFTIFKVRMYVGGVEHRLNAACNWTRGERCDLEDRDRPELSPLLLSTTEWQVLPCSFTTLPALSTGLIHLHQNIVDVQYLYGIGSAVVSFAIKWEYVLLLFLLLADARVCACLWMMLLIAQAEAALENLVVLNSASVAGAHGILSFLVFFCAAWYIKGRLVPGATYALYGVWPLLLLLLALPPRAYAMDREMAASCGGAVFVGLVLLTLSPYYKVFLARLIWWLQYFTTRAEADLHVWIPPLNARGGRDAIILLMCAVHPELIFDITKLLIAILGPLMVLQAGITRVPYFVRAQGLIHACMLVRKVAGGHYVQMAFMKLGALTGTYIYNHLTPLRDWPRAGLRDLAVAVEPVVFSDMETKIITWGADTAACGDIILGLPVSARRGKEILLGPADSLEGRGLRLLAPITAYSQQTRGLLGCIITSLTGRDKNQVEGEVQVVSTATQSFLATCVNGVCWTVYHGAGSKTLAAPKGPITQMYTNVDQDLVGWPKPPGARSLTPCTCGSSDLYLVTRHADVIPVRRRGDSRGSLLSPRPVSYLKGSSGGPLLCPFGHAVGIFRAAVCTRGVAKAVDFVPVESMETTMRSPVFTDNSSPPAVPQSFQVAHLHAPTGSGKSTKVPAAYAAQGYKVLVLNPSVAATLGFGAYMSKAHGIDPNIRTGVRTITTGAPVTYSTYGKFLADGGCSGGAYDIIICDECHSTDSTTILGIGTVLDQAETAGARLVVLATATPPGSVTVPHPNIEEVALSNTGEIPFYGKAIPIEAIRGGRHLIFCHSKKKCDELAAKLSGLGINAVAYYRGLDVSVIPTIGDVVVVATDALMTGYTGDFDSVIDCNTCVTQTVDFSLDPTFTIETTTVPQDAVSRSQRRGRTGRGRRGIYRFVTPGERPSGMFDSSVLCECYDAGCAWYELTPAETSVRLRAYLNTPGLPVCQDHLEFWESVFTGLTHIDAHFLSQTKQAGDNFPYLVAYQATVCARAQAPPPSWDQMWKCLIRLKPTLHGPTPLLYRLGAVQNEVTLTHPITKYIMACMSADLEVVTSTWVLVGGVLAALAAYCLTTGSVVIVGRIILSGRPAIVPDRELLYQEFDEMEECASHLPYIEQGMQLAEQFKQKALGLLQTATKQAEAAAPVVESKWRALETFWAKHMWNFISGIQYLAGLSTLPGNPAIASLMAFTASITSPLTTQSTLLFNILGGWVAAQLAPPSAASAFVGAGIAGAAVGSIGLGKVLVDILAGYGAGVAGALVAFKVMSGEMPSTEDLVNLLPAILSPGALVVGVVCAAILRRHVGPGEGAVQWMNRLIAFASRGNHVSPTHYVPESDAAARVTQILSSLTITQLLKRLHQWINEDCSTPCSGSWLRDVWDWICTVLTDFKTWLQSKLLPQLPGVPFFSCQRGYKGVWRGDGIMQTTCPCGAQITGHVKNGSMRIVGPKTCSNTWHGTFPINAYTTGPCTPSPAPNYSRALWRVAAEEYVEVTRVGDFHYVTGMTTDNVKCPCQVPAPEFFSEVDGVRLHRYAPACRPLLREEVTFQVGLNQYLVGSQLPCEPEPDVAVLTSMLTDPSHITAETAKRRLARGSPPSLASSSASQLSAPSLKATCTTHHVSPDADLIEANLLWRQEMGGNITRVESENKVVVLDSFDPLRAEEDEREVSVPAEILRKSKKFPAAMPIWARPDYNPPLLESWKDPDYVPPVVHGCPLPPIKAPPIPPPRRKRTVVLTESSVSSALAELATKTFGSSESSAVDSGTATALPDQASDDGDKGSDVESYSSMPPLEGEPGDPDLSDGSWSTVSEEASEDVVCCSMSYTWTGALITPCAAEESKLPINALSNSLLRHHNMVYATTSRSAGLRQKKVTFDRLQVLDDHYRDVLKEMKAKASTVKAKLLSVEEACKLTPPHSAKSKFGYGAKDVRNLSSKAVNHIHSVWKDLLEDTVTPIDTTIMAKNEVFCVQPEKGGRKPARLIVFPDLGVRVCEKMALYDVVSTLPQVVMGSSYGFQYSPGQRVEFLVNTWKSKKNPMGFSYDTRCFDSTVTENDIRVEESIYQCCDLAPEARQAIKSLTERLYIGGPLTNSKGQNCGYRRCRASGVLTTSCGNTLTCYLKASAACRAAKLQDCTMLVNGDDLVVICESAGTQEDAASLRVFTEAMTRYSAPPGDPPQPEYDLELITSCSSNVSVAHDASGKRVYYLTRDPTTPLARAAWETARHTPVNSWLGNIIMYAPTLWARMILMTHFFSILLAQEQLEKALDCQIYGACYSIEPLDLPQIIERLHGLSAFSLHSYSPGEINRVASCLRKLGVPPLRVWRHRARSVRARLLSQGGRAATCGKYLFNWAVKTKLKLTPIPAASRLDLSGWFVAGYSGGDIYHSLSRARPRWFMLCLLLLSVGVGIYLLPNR

SMILES: Cc1ccc(NC(=O)[C@H](CCCCN)NC(=O)Nc2ccc(OCc3ccccc3)cc2)cc1 [Compound 2, (S)-6-AMINO-2-[3-(4-BENZYLOXY-PHENYL)-UREIDO]-HEXANOIC ACID P-TOLYLAMIDE]
- pIC50 (HCV RdRp (NS5B)): 4.30 to 5.00
- pEC50 ([1]; Hepatitis C virus): > 6.30
- Selectivity Index (CC50/EC50) [1]: 20 to 100
- pEC50 [2]: > 6.30
- Selectivity Index (CC50/EC50) [2]: >100

SMILES: CCCCn1c(=O)c(C2=NS(=O)(=O)c3ccccc3N2)c(O)c2ccccc21
- pIC50 (HCV RdRp): 6.62
- pIC50 [3, 6]: 6.00
- pIC50 [4]: 5.74

SMILES: CC(C)Cn1c(=O)c(C2=Nc3ccccc3S(=O)(=O)N2)c(O)c2ccccc21
- pIC50 (HCV RdRp): 6.47
- pIC50 [3, 6]: 5.64
- pIC50 [4]: 5.55

SMILES: Cc1ccc(NC(=O)[C@H](CCCCN)NCc2ccc(NC(=O)Nc3ccncc3)cc2)cc1 [Compound 262, (S)-6-AMINO-2-[4-(3-PYRIDIN-4-YL-UREIDO)-BENZYLAMINO]-HEXANOIC ACID P-TOLYLAMIDE]
- pIC50 (HCV RdRp (NS5B)): > 5.00
- pEC50 [1]: > 6.30
- EC50 [2]: 2 to 0.5 μM

SMILES: O=C(O)c1ccc2c(c1)nc(-c1ccccn1)n2C1CCCCC1
- pIC50 (HCV RdRp): 5.36
- pIC50 [3, 6]: 4.16
- times less inhibition with the Replizyme enzyme than with the prepared enzyme [5]: about 20
- pIC50 [4]: 5.46

SMILES: Cc1cc2cc(NC(=O)[C@H](CCCNC(=O)CN)NC(=O)Nc3ccc4c(c3)Cc3ccccc3-4)ccc2[nH]1 [Compound 297, (S)-5-(2-AMINO-ACETYLAMINO)-2-[3-(9H-FLUOREN-2-YL)-UREIDO]-PENTANOIC ACID (2-METHYL-1H-INDOL-5-YL)-AMIDE]
- pIC50 (HCV RdRp (NS5B)): > 5.00
- pEC50 ([1]; Hepatitis C virus): > 6.30
- Selectivity Index (CC50/EC50) [1]: >100
- pEC50 [2]: > 6.30
- Selectivity Index (CC50/EC50) [2]: >100

SMILES: O=C(O)COc1ccc2[nH]cc(C[C@H](NC(=O)c3ccc4c(c3)nc(-c3ccoc3)n4C3CCCCC3)C(=O)O)c2c1
- pIC50 (HCV RdRp): 5.94
- pIC50 [3, 6]: 5.89
- times less inhibition with the Replizyme enzyme than with the prepared enzyme [5]: about 20
- pIC50 [4]: 7.22

SMILES: Cc1ccc(NC(=O)[C@@H](CCCCN)NC(=O)Nc2ccc3c(c2)Cc2ccccc2-3)cc1 [Compound 173, (R)-6-AMINO-2-[3-(9H-FLUOREN-2-YL)-UREIDO]-HEXANOIC ACID P-TOLYLAMIDE]
- pIC50 (HCV RdRp (NS5B)): > 5.00
- EC50 [2]: 2 to 0.5 μM
- Selectivity Index (CC50/EC50) [2]: <20

SMILES: NCCCC[C@@H](NC(=O)Nc1ccc(-c2ccccc2)cc1)C(=O)Nc1ccc(C2CCCCC2)cc1 [Compound 142, (R)-6-AMINO-2-(3-BIPHENYL-4-YL-UREIDO)-HEXANOIC ACID (4-CYCLOHEXYL-PHENYL)-AMIDE]
- pIC50 (HCV RdRp (NS5B)): > 5.00
- pEC50 [2]: > 6.30
- Selectivity Index (CC50/EC50) [2]: <20

SMILES: NCCCCC[C@H](NC(=O)Nc1ccc(OCc2ccccc2)cc1)C(=O)Nc1ccc(C2CCCCC2)cc1 [Compound 121, (S)-7-AMINO-2-[3-(4-BENZYLOXY-PHENYL)-UREIDO]-HEPTANOIC ACID (4-CYCLOHEXYL-PHENYL)-AMIDE]
- pIC50 (HCV RdRp (NS5B)): > 5.00
- pEC50 [2]: > 6.30
- Selectivity Index (CC50/EC50) [2]: <20

SMILES: Cc1ccc(NC(=O)[C@@H](CCCCN)NC(=O)Nc2ccc(OCc3ccccc3)cc2)cc1 [Compound 172, (R)-6-AMINO-2-[3-(4-BENZYLOXY-PHENYL)-UREIDO]-HEXANOIC ACID P-TOLYLAMIDE]
- pIC50 (HCV RdRp (NS5B)): 4.30 to 5.00
- pEC50 ([1]; Hepatitis C virus): > 6.30
- Selectivity Index (CC50/EC50) [1]: 20 to 100
- pEC50 [2]: 5.70 to 6.30
- Selectivity Index (CC50/EC50) [2]: <20

SMILES: Cc1cc2cc(NC(=O)[C@H](CCCCN)NC(=O)Nc3ccc4c(c3)Cc3ccccc3-4)ccc2[nH]1 [Compound 207, (S)-6-AMINO-2-[3-(9H-FLUOREN-2-YL)-UREIDO]-HEXANOIC ACID (2-METHYL-1H-INDOL-5-YL)-AMIDE]
- pIC50 (HCV RdRp (NS5B)): > 5.00
- pEC50 [2]: < 5.70
- Selectivity Index (CC50/EC50) [2]: <20

SMILES: Cc1cc2cc(NC(=O)[C@H](CCCCN)NC(=O)Nc3ccc(OCc4ccccc4)cc3)ccc2[nH]1 [Compound 206, (S)-6-AMINO-2-[3-(4-BENZYLOXY-PHENYL)-UREIDO]-HEXANOIC ACID (2-METHYL-1H-INDOL-5-YL)-AMIDE]
- pIC50 (HCV RdRp (NS5B)): 4.30 to 5.00
- pEC50 ([1]; Hepatitis C virus): < 5.70
- Selectivity Index (CC50/EC50) [1]: <20
- pEC50 [2]: < 5.70
- Selectivity Index (CC50/EC50) [2]: <20

SMILES: Cc1ccc(NC(=O)C(CCCCN)NC(=O)Nc2nnc(COc3ccc(C)cc3)s2)cc1 [Compound 272, (S)-6-AMINO-2-[3-(5-P-TOLYLOXYMETHYL-[1,3,4] THIADIAZOL-2-YL)-UREIDO]-HEXANOIC ACID P-TOLYLAMIDE]
- pIC50 (HCV RdRp (NS5B)): 4.30 to 5.00
- pEC50 [2]: 5.70 to 6.30
- Selectivity Index (CC50/EC50) [2]: 20 to 100

SMILES: Cc1ccc(NC(=O)C(CNC(=O)CN)NC(=O)Nc2ccc(OCc3ccccc3)cc2)cc1 [Compound 268, (S)-3-(2-AMINO-ACETYLAMINO)-2-[3-(4-BENZYLOXY-PHENYL)-UREIDO]-N-P-TOLYL-PROPIONAMIDE]
- pIC50 (HCV RdRp (NS5B)): 4.30 to 5.00
- pEC50 [2]: < 5.70
- Selectivity Index (CC50/EC50) [2]: <20

SMILES: Cc1ccc(NC(=O)C(CCCCN)NC(=O)Nc2ccc(-c3nc4ccc(C)cc4s3)cc2)cc1 [Compound 214, (S)-6-AMINO-2-{3-[4-(6-METHYL-BENZOTHIAZOL-2-YL)-PHENYL]-UREIDO}-HEXANOIC ACID P-TOLYLAMIDE]
- pIC50 (HCV RdRp (NS5B)): > 5.00
- pEC50 [2]: < 5.70
- Selectivity Index (CC50/EC50) [2]: <20

SMILES: O=c1ccn([C@@H]2O[C@H](COP(=O)(O)OP(=O)(O)OP(=O)(O)O)C[C@H]2O)c(=O)[nH]1 [3′-dUTP]
- pIC50 ([3]; Replizyme enzyme; read-out: Experimental IC50, Replizyme): 6.89

SMILES: Cc1cc2cc(NC(=O)[C@H](CCCCN)NC(=O)Nc3ccc(-c4ccccc4)cc3)ccc2[nH]1 [Compound 94, (S)-6-AMINO-2-(3-BIPHENYL-4-YL-UREIDO)-HEXANOIC ACID (2-METHYL-1H-INDOL-5-YL)-AMIDE]
- pIC50 (HCV RdRp (NS5B)): > 5.00
- pEC50 [2]: < 5.70
- Selectivity Index (CC50/EC50) [2]: <20

SMILES: NCCCC[C@@H](NC(=O)Nc1ccc(OCc2ccccc2)cc1)C(=O)Nc1ccc(C2CCCCC2)cc1 [Compound 166, (R)-6-AMINO-2-[3-(4-BENZYLOXY-PHENYL)-UREIDO]-HEXANOIC ACID (4-CYCLOHEXYL-PHENYL)-AMIDE]
- pIC50 (HCV RdRp (NS5B)): > 5.00
- pEC50 [2]: < 5.70
- Selectivity Index (CC50/EC50) [2]: <20
